# Literature values, collected in patent publication US9353170B2, “Long-acting transient polymer conjugates of exendin” (SANOFI-AVENTIS DEUTSCHLAND GMBH, priority 2007, dated 2016).
# Where no end group is shown, it is not given here. PEG 2 kDa = polyethylene glycol, 2 kDa
# Tests used:
# normoglycaemic mice = details: subcutaneous injection
# [1] = incubation in a human plasma model
# db/db mice = details: 10 μg/mouse subcutaneously
substance,measurement,setting,value
PEG40 kDa-FMS-exendin-4: transiently PEGylated Exendin-4 based on a traceless FMS-linker (Shechter et al.),duration of maintained glucose lowering effect,normoglycaemic mice,24 h
same,glucose lowering effect,normoglycaemic mice,30%
[2-Sulfo-9-fluorenylmethoxycarbonyl]3-exendin-4 [FMS3-exendin-4],time at which cleavage is complete,[1],40 h
same,sustained reduction in blood glucose,db/db mice,50%
same,time of return of blood glucose to baseline value,db/db mice,45 h
"N-terminal PEGylation of GLP-1 with only PEG2kDa: GLP-1 N-terminally PEGylated with PEG2kDa (Lee et al. 2005) ({PEG 2 kDa}-HAEGTFTSDVSSYLEGQAAKEFIAWLVKGR; not fully specified (C-terminus); ends and bridges not checked; UniProt P01275 98-127, looked up)",activity on stimulating insulin release,rat pancreas islets,nearly completely abolished
